Laboratory results: patent US7879876B2, “Sulfonamide derivatives and use thereof for the modulation of metalloproteinases” (Merck Serono SA, priority 2005, dated 2011)

Columns and labels:
Format in all cases: biochemical
collagenase (MMP-1) = target: T1, collagenase (MMP-1) (Homo sapiens, UniProt P03956); test: MMP-1 enzyme inhibition assay (coumarin-labelled peptide substrate); conditions: read-out: percentage inhibition MMP1
T1 sequence (P03956 100-469): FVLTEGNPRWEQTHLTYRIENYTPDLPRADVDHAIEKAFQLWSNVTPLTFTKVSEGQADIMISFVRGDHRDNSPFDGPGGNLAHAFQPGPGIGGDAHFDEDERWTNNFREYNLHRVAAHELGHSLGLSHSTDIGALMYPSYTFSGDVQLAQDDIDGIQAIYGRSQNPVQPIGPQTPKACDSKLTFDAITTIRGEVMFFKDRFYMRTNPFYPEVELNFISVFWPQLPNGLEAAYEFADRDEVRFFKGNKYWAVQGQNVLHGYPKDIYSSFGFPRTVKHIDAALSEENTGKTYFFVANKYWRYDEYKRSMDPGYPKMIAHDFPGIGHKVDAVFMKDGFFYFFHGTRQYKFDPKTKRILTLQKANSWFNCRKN
Outline: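 Recombinant human MMP-1, APMA-activated if needed, in Tris-HCl pH 7.6 with NaCl, CaCl2 and 0.05% Brij 35; McaPLGLDpaAR substrate added as 8 μM solution, 2 h at 37 °C. Fluorescence (320/405 nm) read without stopping; IC50 from 10 duplicate concentrations (100 μM–5.1 nM) by four-parameter fit.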

[1] = target: 92 kDa gelatinase (MMP-9) (Homo sapiens, UniProt P14780); test: MMP-9 enzyme inhibition assay (coumarin-labeled peptide substrate); conditions: for inhibition at 5 µM / inhibition at 0.1 µM: read-out: percentage inhibition MMP9; for IC50: read-out: IC50 MMP9
Outline: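 Recombinant human MMP-9 (APMA-activated if needed) was assayed in 100 mM Tris-HCl pH 7.6, 100 mM NaCl, 10 mM CaCl2, 0.05% Brij 35, with McaPLGLDpaAR substrate at 37° C. for 2 h. Fluorescence was read at ex 320/em 405 nm over ten 3-fold compound doses (100 μM–5.1 nM) in duplicate. IC50 came from a four-parameter fit.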

MMP-14 = MMP-14 (Homo sapiens, UniProt P50281); test: MMP-14 enzyme inhibition assay (coumarin-labelled peptide substrate); conditions: read-out: percentage inhibition MMP14
Outline: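 Recombinant human enzyme, APMA-activated if necessary, was incubated with McaPLGLDpaAR substrate and compound (10 concentrations in duplicate, 100 μM to 5.1 nM) in Tris-HCl pH 7.6 with NaCl, CaCl2 and Brij 35 for 2 h at 37 °C. Fluorescence was read at 320/405 nm, and IC50 was taken from a four-parameter fit.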

human ADAM17 (TACE) = human ADAM17 (TACE) (Homo sapiens, UniProt P78536); test: TACE enzyme inhibition assay
Protocol: Compounds of the invention were tested to assess their activities as inhibitors of MMP-1, MMP-2, MMP-9, MMP-14, MMP-12 and TACE. MMP-9 Assay Protocol
Compounds of the invention can be tested for inhibitory activity against human ADAM17 in an assay using human Mca-(endo-1a-Dap(Dnp)-TNF-alpha(−5 to +6)amide as substrate (FEBS Letters, 2000, 275-279).
Stock solutions are prepared as followed: • Assay Buffer: 20 mM Hepes pH 7.5 (Fluka) containing 0.05% Brij 35 (Fluka) • Substrate: 6.1 mM human Mca-(endo-1a-Dap(Dnp)-TNF-alpha(−5 to +6)amide (Bachem) stock solution in 100% DMSO (stored at −20° C.); diluted to 5 μM in assay buffer. • Enzyme: Recombinant human ADAM17, appropriately diluted in assay buffer (1.5 μg/ml).
Test Compounds are prepared initially as 10 mM compound solution in 100% DMSO, diluted to 1 mM in 100% DMSO, then serially diluted 3-fold in 100% DMSO across a 96-well microtitre plate. Assay concentration range is typically between 100 μM to 0.01 nM. The assay is performed in a total volume of 100 μL per well in 96-well microtitre plates. Appropriate concentrations of test compounds dissolved in 10 μL of DMSO are added to the wells, followed by substrate solution (50 μL, 5 μM prepared by dilution of DMSO stock in assay buffer) and enzyme solution (40 μL). For each as say ten concentrations of test compound are examined in […]. Control wells lack either enzyme or test compound. The reactions are incubated at room temperature for 1.5 hours. The fluorescence at 405 nm is measured immediately with a fluorometer using 355 nm excitation, without stopping the reaction.
The effect of the test compound is determined from the dose response curve generated by the 10 duplicate concentrations of inhibitor. The IC50 (the concentration of compound required to give a 50% decrease in enzyme activity) is obtained by fitting data to the equation, Y=a+((b−a)/(1+(c/X)^d)). (Y=inhibition achieved for a particular dose; X=the dose in nM; a=minimum y or zero % inhibition; b=maximum y or 100% inhibition; c=is the IC50; d=is the slope). The result is rounded to one significant figure.

Sequence of human ADAM17 (TACE) (P78536 215-824): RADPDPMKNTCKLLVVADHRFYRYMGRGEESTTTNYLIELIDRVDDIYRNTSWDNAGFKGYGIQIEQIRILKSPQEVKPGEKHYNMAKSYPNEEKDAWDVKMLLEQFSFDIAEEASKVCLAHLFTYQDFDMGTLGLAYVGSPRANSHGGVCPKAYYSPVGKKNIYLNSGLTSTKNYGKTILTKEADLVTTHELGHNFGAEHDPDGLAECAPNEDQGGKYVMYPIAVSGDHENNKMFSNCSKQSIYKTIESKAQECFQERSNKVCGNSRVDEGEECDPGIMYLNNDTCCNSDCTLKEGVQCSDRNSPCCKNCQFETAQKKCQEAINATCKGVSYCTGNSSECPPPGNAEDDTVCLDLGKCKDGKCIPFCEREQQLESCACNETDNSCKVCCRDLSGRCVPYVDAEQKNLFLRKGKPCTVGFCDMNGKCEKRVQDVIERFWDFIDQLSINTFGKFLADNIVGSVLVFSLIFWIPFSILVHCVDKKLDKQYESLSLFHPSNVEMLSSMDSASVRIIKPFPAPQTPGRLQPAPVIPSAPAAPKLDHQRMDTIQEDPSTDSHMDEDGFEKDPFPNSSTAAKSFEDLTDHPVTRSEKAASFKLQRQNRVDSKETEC
Sequence of 92 kDa gelatinase (MMP-9) (P14780 107-707 limits assumed): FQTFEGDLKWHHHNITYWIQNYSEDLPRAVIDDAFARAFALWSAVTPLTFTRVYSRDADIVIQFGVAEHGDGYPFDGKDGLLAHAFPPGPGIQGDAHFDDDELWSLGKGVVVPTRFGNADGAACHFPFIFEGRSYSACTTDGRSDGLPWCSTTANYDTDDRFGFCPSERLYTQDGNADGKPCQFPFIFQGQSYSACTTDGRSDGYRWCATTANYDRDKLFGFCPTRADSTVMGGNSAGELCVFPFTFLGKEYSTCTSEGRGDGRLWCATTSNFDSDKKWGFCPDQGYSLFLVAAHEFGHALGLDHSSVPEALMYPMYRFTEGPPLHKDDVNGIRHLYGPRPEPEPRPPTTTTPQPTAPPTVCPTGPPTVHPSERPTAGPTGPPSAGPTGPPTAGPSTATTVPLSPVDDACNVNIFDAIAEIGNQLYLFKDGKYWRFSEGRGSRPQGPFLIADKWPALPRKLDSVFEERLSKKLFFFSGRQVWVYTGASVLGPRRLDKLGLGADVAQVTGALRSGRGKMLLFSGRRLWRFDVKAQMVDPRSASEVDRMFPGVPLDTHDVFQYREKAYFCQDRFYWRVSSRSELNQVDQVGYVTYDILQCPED

| Structure (SMILES) | inhibition at 5 µM (collagenase (MMP-1)) | inhibition at 5 µM [1] | inhibition at 5 µM (MMP-14) | IC50 (human ADAM17 (TACE)) | inhibition at 0.1 µM (MMP-14) | IC50 [1] | inhibition at 0.1 µM [1] | inhibition at 0.1 µM (collagenase (MMP-1); @ 0.1 μM) |
| --- | --- | --- | --- | --- | --- | --- | --- | --- |
| O=CN(O)C(CS(=O)(=O)N1CCc2ccc(Cl)cc2C1)C1CC1 (stereo not shown) [Example 73, N-{2-[(7-chloro-3,4-dihydroisoquinolin-2(1H)-yl)sulfonyl]-1-cyclopropylethyl}-N-hydroxyformamide] | 19% | 5% | 40% | 88 nM | – | – | – | – |
| O=CN(O)C(CS(=O)(=O)N1CCc2cc(C(F)(F)F)ccc2C1)[C@H]1CCCO1 (stereo partly drawn) [Example 47, N-hydroxy-N-(1-[(2R)-tetrahydrofuran-2-yl]-2-{[6-(tri-fluoromethyl)-3,4-dihydroisoquinolin-2(1H)-yl]sulfonyl}ethyl)formamide] | 40% | 40% | 79% | 933 nM | 7% | – | – | – |
| CC(C)(C)CC(CS(=O)(=O)N1CCc2cc(Cl)c(Cl)cc2C1)N(O)C=O (stereo not shown) [Example 42, N-(1-{[(6,7-dichloro-3,4-dihydroisoquinolin-2(1H)-yl)-sulfonyl]methyl}-3,3-dimethylbutyl)-N-hydroxyformamide] | 29% | 35% | 88% | 611 nM | 15% | – | – | – |
| CCC#CCC(C)(C)C(CS(=O)(=O)N1CCc2cc(C(F)(F)F)ccc2C1)N(O)C=O (stereo not shown) [Example 30, N-[2,2-dimethyl-1-({[6-(trifluoromethyl)-3,4-dihydro-isoquinolin-2(1H)-yl]sulfonyl}methyl)hept-4-yn-1-yl]-N-hydroxyformamide] | 8% | 3% | 38% | > 5000 nM | – | – | – | – |
| O=CN(O)C(CS(=O)(=O)N1CCc2ccccc2C1)c1cccnc1 (stereo not shown) [Example 10, N-[2-(3,4-dihydroisoquinolin-2(1H)-ylsulfonyl)-1-pyridin-3-ylethyl]-N-hydroxyformamide] | 8% | – | 36% | 67 nM | – | > 5000 nM | – | – |
| O=CN(O)C(CCc1cccnc1)CS(=O)(=O)N1CCc2ccc(Cl)cc2C1 (stereo not shown) [Example 86, N-(1-{[(7-chloro-3,4-dihydroisoquinolin-2(1H)-yl)sulfonyl]methyl}-3-pyridin-3-ylpropyl)-N-hydroxyformamide] | 49% | 52% | 100% | 59 nM | 12% | – | – | – |
| CC(C)(C)CC(CS(=O)(=O)N1CCc2cc(C(F)(F)F)ccc2C1)N(O)C=O (stereo not shown) [Example 43, N-[3,3-dimethyl-1-({[6-(trifluoromethyl)-3,4-dihydro-isoquinolin-2(1H)-yl]sulfonyl}methyl)butyl]-N-hydroxyformamide] | 53% | 68% | 89% | > 5000 nM | 14% | – | 1% | – |
| CC1(C)OC[C@H](C(CS(=O)(=O)N2Cc3ccccc3C2)N(O)C=O)O1 (stereo partly drawn) [Example 16, N-{2-(1,3-dihydro-2H-isoindol-2-ylsulfonyl)-1-[(4S)-2,2-dimethyl-1,3-dioxolan-4-yl]ethyl}-N-hydroxyformamide] | 74% | – | 80% | 311 nM | 0% | > 5000 nM | – | 5% |
| O=CN(O)C(CS(=O)(=O)N1CCc2ccc(-c3ccccc3)cc2C1)C1CCCC1 (stereo not shown) [Example 69, N-{1-cyclopentyl-2-[(7-phenyl-3,4-dihydroisoquinolin-2(1H)-yl)sulfonyl]ethyl}-N-hydroxyformamide] | 4% | 26% | 63% | 606 nM | – | – | – | – |
| CC1(C)OC[C@H](C(CS(=O)(=O)N2CCc3ccc(C(F)(F)F)cc3C2)N(O)C=O)O1 (stereo partly drawn) [Example 28, N-(1-[(4S)-2,2-dimethyl-1,3-dioxolan-4-yl]-2-{[7-(trifluoro-methyl)-3,4-dihydroisoquinolin-2(1H)-yl]sulfonyl}ethyl)-N-hydroxyformamide] | 18% | 21% | 62% | 1280 nM | – | – | – | – |
| COc1cc2c(cc1OC)CN(S(=O)(=O)CC([C@H](O)CO)N(O)C=O)CC2 (stereo partly drawn) [Example 24, N-((2S)-1-{[(6,7-dimethoxy-3,4-dihydroisoquinolin-2(1H)-yl)sulfonyl]methyl}-2,3-dihydroxypropyl)-N-hydroxyformamide] | 0% | – | 0% | > 5000 nM | – | > 5000 nM | – | – |
| COc1cc2c(cc1OC)CN(S(=O)(=O)CC(CCc1ccccc1)N(O)C=O)CC2 (stereo not shown) [Example 12, N-(1-{[(6,7-dimethoxy-3,4-dihydroisoquinolin-2(1H)-yl)sulfonyl]methyl}-3-phenylpropyl)-N-hydroxyformamide] | 0% | – | 0% | 1220 nM | – | > 5000 nM | – | – |
| COc1ccc2c(c1)CN(S(=O)(=O)CC(CCC1CCCO1)N(O)C=O)CC2 (stereo not shown) [Example 33, N-hydroxy-N-[1-{[(7-methoxy-3,4-dihydroisoquinolin-2(1H)-yl)sulfonyl]methyl}-3-(tetrahydrofuran-2-yl)propyl]formamide] | 4% | 15% | 30% | 427 nM | – | – | – | – |
| O=CN(O)C(CS(=O)(=O)N1Cc2ccc(F)cc2C1)C1CCCC1 (stereo not shown) [Example 80, N-{1-cyclopentyl-2-[(5-fluoro-1,3-dihydro-2H-isoindol-2-yl)sulfonyl]ethyl}-N-hydroxyformamide] | 25% | 0% | 15% | > 5000 nM | – | – | – | – |
| CC(C)C(CS(=O)(=O)N1CCc2ccc(-c3ccc(F)cc3)cc2C1)N(O)C=O (stereo not shown) [Example 50, N-[1-({[7-(4-fluorophenyl)-3,4-dihydroisoquinolin-2(1H)-yl]sulfonyl}methyl)-2-methylpropyl]-N-hydroxyformamide] | 0% | 72% | 83% | 397 nM | 13% | – | 4% | – |
| O=CN(O)[C@H](CS(=O)(=O)N1CCc2ccc(Cl)cc2C1)[C@H]1CCCO1 [Example 23, N-{(1S)-2-[(7-chloro-3,4-dihydroisoquinolin-2(1H)-yl)sulfonyl]-1-[(2R)-tetrahydrofuran-2-yl]ethyl}-N-hydroxyformamide] | 52% | – | 72% | 13 nM | 7% | > 5000 nM | – | – |
| CCC(CC)C(CS(=O)(=O)N1CCc2cc(Cl)c(Cl)cc2C1)N(O)C=O (stereo not shown) [Example 34, N-(1-{[(6,7-dichloro-3,4-dihydroisoquinolin-2(1H)-yl)-sulfonyl]methyl}-2-ethylbutyl)-N-hydroxyformamide] | 12% | 42% | 82% | 353 nM | 3% | – | – | – |
